Counter-ions that a name gives are not always drawn.

The nature of series [1]: Chemical stability in buffer or water. Type of series: physicochemical. As for the experimental part: The compound was subjected to stability studies according to the following procedures.
(§1) Stabilities of derivatives at various pHs were studied at 25° and 37°. The plasma studies were conducted at 37° in rat and human plasma. Human plasma was obtained from Watkins Hospital and rat plasma was obtained from the Animal Care Unit of the University of Kansas. The derivative concentration used was around 20-25 μg/ml. A stock solution of the compound was prepared at 0.8-1.0 mg/mL and was added to plasma to give the desired concentration (20-25 μg/mL). One hundred microliter samples were removed and was quenched with 250 uL. acetonitrile and centrifuged to precipitate the plasma proteins. The degradation kinetics were studied by HPLC plotting peak area vs. time. The t90 and t50 were calculated. Both chemical and plasma studies were followed by high performance liquid chromatography using a RP-8 column (15 cm) and a precolumn (5 cm). The detector was set at 227 nm. The mobile phase consisted of 0.02M acetate (pH 5): acetonitrile 50:50 or 35:65 and the flow rate ranged from 1-1.5 mL/min or the same solvents containing 0.001M tetrabutylammoniumydrogensulphate and a flow rate of 1 mL/min.
The identity of this peak was further confirmed by the degradation studies of the new derivatives. Thus, 2'(DMG) taxol was incubated with water at 37° and the product was concentrated and purified by preparative TLC. The product after purification was analyzed by HPLC and spectroscopic methods.

Series [2] has as its system microtubule assembly. The series can be described thus: In vitro microtubule assembly kinetics. Type of series: biochemical. Conditions: rank order. On the procedure: (A) In vitro Microtubule Assembly Kinetics Studies
The microtubule assembly study was conducted using both 2' and 7-derivatives according to the in vitro procedures disclosed, for example, in Mellado et al., Biochemical and Biophysical Research Communications, Vol. 124, No. 2 (1984), pp. 329-336; Magri et al., J. Org. Chem., 51, 797-802 (1986); and Parness et al., Biochemical and Biophysical Research Communications, Vol. 105, No. 3, pp. 1082-1091 (1982).

In series [3] the test system is B-16 melanoma cells. Description: In vitro B16 melanoma cell proliferation. Type of series: cell-based. To be noted: rank order. On the procedure:
These studies were conducted according to standard procedures as described in Donoso and Himes, Cancer Biochem. Biophysics, vol. 7, (1984), p. 133.

Series [4] deals with human mammary carcinoma MX-1 xenograft. The series can be described thus: Subrenal capsule human mammary carcinoma MX-1 xenograft in mice. Conditions: for % T/C: Q4D Days 1, 5, 9; for % T/C / # OF ANMLS ALIVE CALC/TOTAL / Average tumor WEIGHT CHANGE (DELTA) / Average tumor weight, FINAL: Day 11; for ANML BODY WT DIFF (test minus control) / TEST BODY WT CHG / # OF ANMLS ALIVE CALC/TOTAL / Average tumor WEIGHT CHANGE (DELTA) / Average tumor weight, FINAL: Q4D; for ANML BODY WT DIFF (test minus control) / TEST BODY WT CHG: Day 1 to 11. The text has this:
The procedures followed are those described at pages 23-24 of NIH Publication No. 84-2635, In Vivo Cancer Model (February 1984).
In the procedure, test groups of mice (6 mice per test group) and control groups of 12 mice per group are utilized. A tumor fragment (human mammary carcinoma MX-1 xenograft), is implanted under the membranous covering of the kidney of each mouse.
Day 0: Anesthetize animals. Record body weight (Weigh Day 1). Implant tumor, measure and record. Randomize animals after they recover from the anesthetic. Run bacterial cultures. Determine solubilities of test agent. Record deaths daily.
Day 1: Check cultures. Discard experiment if contaminated. Prepare test materials. Initiate test agent injections (in the nape of the neck) based on individual body weight. Treatment is Q4D on Days 1, 5, and 9. Prepare test agent fresh on each injection day and administer based on individual body weight for that day.
Days 5 and 9: Prepare test agent fresh on each injection day and administer based on individual body weight for that day.
Day 11: End and evaluate experiment. Record body weights (Weigh Day 2). Measure tumor in OMU's (Ocular Micrometer Unit--10 OMU's=1 mm) and record.
The parameter measured is mean tumor weight change (delta) based on length and width measurements in millimeters. Mean animal body weights are computed for Day 1 and Day 11, compute T/C for all test groups with>65% survivors on Day 11. An excessive body weight change difference (test minus control) may also be used in evaluating toxicity. The dimensions are measured and recorded in Ocular Micrometer Units (OMU). A computer is utilized for the following:
(1) Converts OMU's to millimeters (mm).
(2) Calculates tumor weights (mgs) from tumor dimensions (mm×mm) following the formula for the volume of a prolate ellipsoid: [formula] (3) Calculates the change (delta) in mean tumor weight for each group of mice:
Change in Mean Tumor Weight=Mean Tumor WeightFINAL -Mean Tumor WeightINITIAL.
(4) Calculates the change (delta) in mean tumor weight for test (T) and control (C) groups.
(5) Calculates T/C% for all test groups with>65% survivors on Final Evaluation Day: [formula]

Series [5] is described as follows: Solubility. The series is classed as physicochemical. To be noted: read-out: Solubility.
Series [6] can be described thus: Plasma stability, rat plasma. To be noted: rat plasma (20 μg/mL), 37° C. The series is classed as in vitro ADME. On the procedure: as §1
The nature of series [7]: Plasma stability, human plasma. The series is classed as in vitro ADME. Conditions: 37° C. As for the experimental part: as §1, with “The derivative concentration used was around 20-25 μg/ml. A stock solution of the compound was prepared at 0.8-1.0 mg/mL and was added to plasma to give the desired concentration (20-25 μg/mL).” left out

As for `CC(=O)O[C@H]1C(=O)[C@@]2(C)[C@H]([C@H](OC(=O)c3ccccc3)[C@]3(O)C[C@H](OC(=O)[C@H](OC(=O)CN(C)C)[C@@H](NC(=O)c4ccccc4)c4ccccc4)C(C)=C1C3(C)C)[C@]1(OC(C)=O)CO[C@@H]1C[C@@H]2O` [Compound 1, 2'-(N,N-dimethylglycyl)taxol], in series [1] (incubated with water at 37°), the “Identity of degradation product” value is on record as “the product is taxol”. For the same compound, the “Ability to assemble microtubules (order)” value in series [2] is given as “taxol >7-(N,N-dimethylglycyl)taxol(11)>2'(N,N-diethylaminopropionyl)taxol(8)>2'(N,N-dimethylglycyl)taxol(2)”. In addition, the “Order of effectiveness in B-16 melanoma cell proliferation study” value in series [3] is listed as “taxol>2'-(N,N-dimethylglycyl)taxol>2'-(N,N-diethylaminopropionyl)taxol>7-(N,N-dimethylglycyl)taxol”. In addition, in series [4] (Table 1, 5.90 mg/kg), the “% T/C” value is given as -78%, the “ANML BODY WT DIFF (test minus control)” value is “-.5”, the “TEST BODY WT CHG” value is listed as -2.2 and the “# OF ANMLS ALIVE CALC/TOTAL” value is 6/6. In series [4] (Table 1, 5.90 mg/kg), the “Average tumor WEIGHT CHANGE (DELTA)” value was “-.48 MGS” and the “Average tumor weight, FINAL” value was “.13 MGS”. Besides, in series [4] (Table 1, 8.90 mg/kg), the “% T/C” value was -53%, the “ANML BODY WT DIFF (test minus control)” value is recorded as “.8”, the “TEST BODY WT CHG” value was “-.9” and the “# OF ANMLS ALIVE CALC/TOTAL” value is recorded as 5/6. Besides, in series [4] (Table 1, 8.90 mg/kg), the “Average tumor WEIGHT CHANGE (DELTA)” value is “-.41 MGS” and the “Average tumor weight, FINAL” value was “.36 MGS”. In series [4] (Table 1, 13.30 mg/kg), the “ANML BODY WT DIFF (test minus control)” value is listed as “-.6”, the “TEST BODY WT CHG” value is on record as -2.3, the “# OF ANMLS ALIVE CALC/TOTAL” value is given as 4/6 and the “Average tumor WEIGHT CHANGE (DELTA)” value is “-.64 MGS”. Besides, in series [4] (Table 1, 13.30 mg/kg), the “Average tumor weight, FINAL” value is reported as “.00 MGS”. Also, in series [4] (Table 1, 20.00 mg/kg), the “ANML BODY WT DIFF (test minus control)” value is “-.5”, the “TEST BODY WT CHG” value is reported as -2.2, the “# OF ANMLS ALIVE CALC/TOTAL” value is reported as 4/6 and the “Average tumor WEIGHT CHANGE (DELTA)” value is given as “-.56 MGS”. Further, the “Average tumor weight, FINAL” value in series [4] (Table 1, 20.00 mg/kg) is “.00 MGS”. Moreover, in series [4] (Table 1, 30.00 mg/kg), the “% T/C” value was “TOX”; the “TEST BODY WT CHG” value is reported as -3.8; the “# OF ANMLS ALIVE CALC/TOTAL” value is 1/6; the “Average tumor weight, FINAL” value is listed as “.00 MGS”.
For `CC(=O)O[C@H]1C(=O)[C@]2(C)[C@@H](OC(=O)CN(C)C)C[C@H]3OC[C@@]3(OC(C)=O)[C@H]2[C@H](OC(=O)c2ccccc2)[C@]2(O)C[C@H](OC(=O)[C@H](O)[C@@H](NC(=O)c3ccccc3)c3ccccc3)C(C)=C1C2(C)C` [Compound 7, 7-(N,N-Dimethylglycyl)Taxol], the “Ability to assemble microtubules (order)” value in series [2] is listed as “taxol >7-(N,N-dimethylglycyl)taxol(11)>2'(N,N-diethylaminopropionyl)taxol(8)>2'(N,N-dimethylglycyl)taxol(2)”. In series [3], the “Order of effectiveness in B-16 melanoma cell proliferation study” value was “taxol>2'-(N,N-dimethylglycyl)taxol>2'-(N,N-diethylaminopropionyl)taxol>7-(N,N-dimethylglycyl)taxol”. For the same compound, in series [4] (Table 2, 4.13 mg/kg), the “% T/C” value came to 34%, the “ANML BODY WT DIFF (test minus control)” value is “-.5”, the “TEST BODY WT CHG” value is listed as -4.5 and the “# OF ANMLS ALIVE CALC/TOTAL” value is reported as 4/5. Moreover, in series [4] (Table 2, 4.13 mg/kg), the “Average tumor WEIGHT CHANGE (DELTA)” value was 4.92 MGS and the “Average tumor weight, FINAL” value is listed as 5.66 MGS. Besides, in series [4] (Table 2, 8.25 mg/kg), the “% T/C” value is reported as 23%, the “ANML BODY WT DIFF (test minus control)” value is on record as “.1”, the “TEST BODY WT CHG” value is -3.9 and the “# OF ANMLS ALIVE CALC/TOTAL” value is given as 4/4. In addition, in series [4] (Table 2, 8.25 mg/kg), the “Average tumor WEIGHT CHANGE (DELTA)” value was determined as 3.38 MGS and the “Average tumor weight, FINAL” value came out at 4.19 MGS. In addition, in series [4] (Table 2, 16.50 mg/kg), the “% T/C” value is -93%, the “ANML BODY WT DIFF (test minus control)” value is listed as -1.7, the “TEST BODY WT CHG” value is reported as -5.7 and the “# OF ANMLS ALIVE CALC/TOTAL” value was 3/4. Also, in series [4] (Table 2, 16.50 mg/kg), the “Average tumor WEIGHT CHANGE (DELTA)” value is “-.55 MGS” and the “Average tumor weight, FINAL” value is “.04 MGS”. In series [4] (Table 2, 33.00 mg/kg), the “ANML BODY WT DIFF (test minus control)” value was 1.3, the “TEST BODY WT CHG” value is listed as -2.7, the “# OF ANMLS ALIVE CALC/TOTAL” value was 4/5 and the “Average tumor WEIGHT CHANGE (DELTA)” value is on record as “-.74 MGS”. The “Average tumor weight, FINAL” value in series [4] (Table 2, 33.00 mg/kg) is “.00 MGS”.
In the case of `CC(=O)O[C@H]1C(=O)[C@]2(C)[C@@H](OC(=O)CN(C)C)C[C@H]3OC[C@@]3(OC(C)=O)[C@H]2[C@H](OC(=O)c2ccccc2)[C@]2(O)C[C@H](OC(=O)[C@H](O)[C@@H](NC(=O)c3ccccc3)c3ccccc3)C(C)=C1C2(C)C` [Compound 8, Methanesulphonic acid salt of 7-(dimethylglycyl)taxol], the solubility – broadly, how much of the substance goes into solution per volume – in series [5] is greater than 2000 µg/mL. In addition, the half-life (commonly how long it takes for the measured level to halve) is 142 days in series [1] (0.02 M Acetate, pH 3.5, 25° C.); 1.41 days in series [1] (0.02 M Phosphate, pH 7.4, 25° C.); 71.6 days in series [1] (0.02 M acetate, pH 4.5, 25° C.); 17.3 h in series [6]; 24.4 h in series [7] (human plasma (10 μg/mL)); 27.7 h in series [7] (human plasma (20 μg/mL)).

Values taken from patent US4960790A, “Derivatives of taxol, pharmaceutical compositions thereof and methods for the preparation thereof” (University of Kansas, priority 1989, dated 1990).
